Laboratory results taken from patent publication US11304964B2, “Bolaamphiphilic compounds, compositions and uses thereof” (priority 2012, dated 2022).

Legend:
[1] = CNS penetration effectiveness index; cited from earlier work
[2] = Pharmacokinetic studies, second set (LC-MS, brain); type: in vivo; conditions: pyrido pretreated mice
Experimental: Another group of mice were injected with free tenofovir. The total dose of tenofovir that was injected to the mice that received encapsulated tenofovir was […], out of which 7.5 mg/kg was encapsulated tenofovir. The total dose of tenofovir that was injected to the mice that received free tenofovir was 75 mg/kg. All animals were pretreated with 0.5 mg/kg pyrido. Results are mean of 5 mice±SD.
In the second set of the PK studies, all the mice were pretreated with pyrido 15 min prior to the injection of 7.5 mg/kg tenofovir encapsulated in optimal vesicles or with 75 mg/kg free tenofovir with no vesicles.

[3] = human subjects treated orally with 300 mg tenofovir; cited from earlier work
[4] = Tenofovir concentration in brain after i.v. tenofovir-loaded vesicles (HPLC-UV of brain homogenate); type: in vivo, mice
Source text: Protein precipitation was accomplished by adding trichloroacetic acid (TCA) at a final concentration of 3.75%, providing a clear supernatant by centrifugation. This supernatant was neutralized by 1% sodium hydroxide solution and the neutralized extract was examined by HPLC with a UV detector, using an isocratic method with 10% aceto-nitrile and 90% buffer of triethyl amine in water adjusted to pH 5.4 with concentrated phosphoric acid. When applied to a solution of tenofovir in buffer without the brain extract, the retention time was 17.3 min (FIG. 8 Panel A). […] The broad peak at 22.5 min overlapped the peak of the tenofovir at 17 min (compare FIG. 8 Panel B to FIG. 8 Panel A) and would interfere with the determination of tenofovir concentration in the extract. To narrow the peak of the endogenous compound with the Rt of 22.5 min, a solid phase extraction (SPE) method was employed, using BOND ELUT-C18 column. After the treatment with SPE some peaks disappeared and the others became narrower.
Different concentrations of tenofovir were then spiked into a supernatant obtained after deproteinization of brain homogenate with TCA and centrifugation. The supernatant with the tenofovir was loaded into the SPE cartridge, which was conditioned by 3 ml methanol and 3 ml of 150 mM ammonium acetate (pH=5.0). After washing with 900 μl of 100 mM ammonium acetate (pH=7.0), in order to obtain less interference at the retention time of each component, the column was eluted by 500 μl of methanol to collect the tenofovir. The solvent was removed under nitrogen at 60° C. The extracted sample was dissolved into 120 μl of water and methanol solution (90:10, v/v) and injected into the HPLC.
In view of the conditions for the determination of tenofovir in brain homogenates established herein, mice were injected with 7.5 mg/kg of tenofovir encapsulated in vesicles prepared as for Table 5 above that contained the optimal GLH-55b and SA and brain homogenates were prepared from the brains of these mice for the determination of tenofovir concentrations. […] This concentration value is significant and should have a therapeutic affect against HIV.
A subsequent in vivo experiment was carried out as above but with testing over different periods of time from of 15 min, 30 min, 60 min and 120 min after IV injection the amount of tenofovir was in micro gr/grm brain 6.2, 2.2, 1.0 and 0.5 respectively. While the free tenofovir injected had levels of 0 less than 0.2 micrograms/gr brain. Thus indicating the efficacy of the vesicles to delivery tenofovir to the brain.

[5] = Pharmacokinetic studies, first set (LC-MS, blood and brain); conditions: for half-life: mouse, iv, 34 mg/kg
Experimental: The chromatographic separation was performed with an HPLC Agilent 1100 instrument and Auto-sampler G 1329A ALS 1200 Series with Frizzier G1330B FC/ALS Therm, at a temperature of 4° C., using a reverse phase Kromasile 100A C18 250×2.0 (5 μm) column at 30° C. under gradient conditions. The mobile phase consisted of two solvents: (A) acetonitrile and (B) 0.5% formic acid in water and was operated under the following conditions:
The MS/MS detector was an Ion Trap MS Esquire 3000 Plus (Bruker Daltonics), operating in the ESI positive polarity mode. The internal standard was 2′-deoxyadenosine 5′-phosphate.
After establishing conditions for the LC-MS as described above, brain homogenate and blood samples were prepared and spiked known concentrations of tenofovir and a fixed concentration of the internal standard into the blood samples and the brain homogenates. The specimens were then processed by adding 180 μL of 10% Tri Chloro Acetic acid (TCA) to 300 μL of the homogenate followed by centrifugation to obtain a clear solution of blood or brain extracts. The supernatant that was obtained by the centrifugation was neutralized with 200 μL of 1% NaOH. The MS signals that were obtained from each sample were plotted as a function of the spiked tenofovir concentration to obtain calibration curves for the blood (FIG. 17A) and for the brain (FIG. 17B).
For the PK studies, vesicles optimized as described above were used for the delivery of tenofovir into the brain. […] The vesicles were prepared by film hydration followed by sonication using a HEPES hydration buffer.
In the first set of the PK experiments, mice (average weight was 22 g per mouse) were injected with vesicles that contained encapsulated tenofovir or with empty vesicles followed by free tenofovir (4 mice per group). […] The dose of the total tenofovir was 34 mg/kg, out of which 6.8 mg/kg was encapsulated (only when encapsulated tenofovir was injected). […] Before the injection of the test material, mice were pretreated with 0.5 mg/kg pyridostigmine to inhibit choline esterases in the blood (unless otherwise stated), since vesicles that contain GLH-20 release their content in presence of choline esterases. At various times after the injection (15, 30, 75, 120 and 240 min), blood samples were withdrawn and the mice were perfused with 10 mL PBS and sacrificed. Brains were immediately removed after sacrificing the mice and brain homogenates were prepared by homogenizing the brains in PBS (4 mL PBS per gram brain). Extracts of the homogenates were then prepared by adding 180 μL of 10% TCA to 300 μL of the homogenate followed by centrifugation to obtain a clear solution of the brain extract. The supernatant that was obtained by the centrifugation was neutralized with 200 μL of 1% NaOH. Tenofovir concentration in the clear brain extract was determined by LC-MS, using the calibration curve which is described above in FIG. 17. The blood samples were centrifuged to separate the serum from the blood cells and processed in the same way as the brain homogenates.

**Q.** What does the source list for C[C@H](Cn1cnc2c(N)ncnc21)OCP(=O)(O)O [tenofovir, ({[(2R)-1-(6-amino-9H-purin-9-yl)propan-2-yl]oxy}methyl)phosphonic acid]?
**A.** CPE rating [1]: 1; concentration of tenofovir in the brain ([2]; 7.5 mg/kg tenofovir encapsulated in optimized V-Smart vesicles, all time points up to 2 hours, vs estimated therapeutic threshold): > 100 ng/mL; concentrations of tenofovir in the brain ([2]; free drug 75 mg/kg, no vesicles, detection limit 40 ng/ml): below the measurable level; concentration at 60 min ([2]; mouse, brain, intravenous, 7.5 mg/kg encapsulated in optimized V-Smart vesicles, 60 min after the injection, read-out: concentration of tenofovir in the brain): ~1000 ng/mL; concentration at 15 min ([2]; mouse, brain, intravenous, 7.5 mg/kg encapsulated in optimized V-Smart vesicles, after 15 min, read-out: concentration of tenofovir in the brain): > 6000 ng/g; blood concentration of tenofovir [3]: about 500 ng/ml; concentration of tenofovir in the brain ([4]; mice i.v., 7.5 mg/kg tenofovir encapsulated in vesicles with GLH-55b and SA, estimated from calibration curve): 22.7 μg/gr brain; level of tenofovir in brain ([4]; mice, free tenofovir injected IV): less than 0.2 micrograms/gr brain; concentration at 15 min ([4]; mouse, brain, 7.5 mg/kg, mice, encapsulated tenofovir in vesicles, 15 min after IV injection, read-out: amount of tenofovir in brain): 6200 ng/g; concentration at 30 min ([4]; mouse, brain, 7.5 mg/kg, mice, encapsulated tenofovir in vesicles, 30 min after IV injection, read-out: amount of tenofovir in brain): 2200 ng/g; concentration at 60 min ([4]; mouse, brain, 7.5 mg/kg, mice, encapsulated tenofovir in vesicles, 60 min after IV injection, read-out: amount of tenofovir in brain): 1000 ng/g; concentration at 120 min ([4]; mouse, brain, 7.5 mg/kg, mice, encapsulated tenofovir in vesicles, 120 min after IV injection, read-out: amount of tenofovir in brain): 500 ng/g; tenofovir concentration in the brain ([5]; mice injected with empty vesicles and then free tenofovir): not detected; half-life ([5]; brain, apparent half-life of tenofovir in the brain, mice pretreated with pyrido, tenofovir encapsulated in GLH-19 + GLH-20 vesicles, i.v.): ~40 min; half-life ([5]; serum, actual half-life of the encapsulated tenofovir in the blood, inferred, encapsulated tenofovir only 20% of injected): > 20 min; half-life ([5]; serum, half-life of tenofovir in the blood (apparent), mice i.v., total tenofovir 34 mg/kg of which 6.8 mg/kg encapsulated, reflects free and encapsulated tenofovir): ~20 min; persistence of tenofovir in the brain ([5]; tenofovir encapsulated in GLH-19 vesicles, i.v. mice): did not persist long in the brain
